Values quoted from earlier work as cited in US20110003005A1, “Methods of Treating PDNV and PONV with Extended Release Ondansetron Compositions” (priority 2009, published 2011).

SMILES: Cc1nccn1CC1CCc2c(c3ccccc3n2C)C1=O (centres unmarked) [ondansetron]
- effect of ondansetron administered after the 24 h period following surgery (Pan et al. 2008): efficacy
- effect of oral ondansetron administered in the 24 h period after surgery (Pan et al. 2008): no effect
- nausea and vomiting post-discharge, relative to placebo (orally administered, Gan et al. 2002): did reduce
- improving control of nausea and vomiting in the 24 hour period following surgery (orally administered, Kovac et al. 1999): ineffective
- orally administered ondansetron versus placebo, nausea and vomiting (over a 24 and 72 h period following surgery, Thagaard et al. 2003): no difference
